These molecules were tested against T1, human Werner helicase (Uniprot Q14191, amino acids 517-1235 with L1074F point mutation), WRN-BV08 (Homo sapiens, UniProt Q14191, L1074F) (assay: WRN (BV08) ADP-Glo Assay).
T1 construct: Uniprot Q14191, amino acids 517-1235 with L1074F point mutation; TEV cleavable 8xHis tag (C, cleaved yes); made in house; host or cells: Sf9 insect cells (baculovirus, pFastBac)
Type: biochemical
Protocol: DNA duplex was synthesized at BGI (Shenzhen, China) and was composed of strand 1 with the sequence 5′-[…]-3′ (SEQ ID NO.: 1) and strand 2 with the sequence 5′-[…]-3′ (SEQ ID NO.: 2). DNA strands were annealed by heating to 95 °C for 5 minutes followed by slow cooling to room temperature. […] DMSO (0.1 μl) was added to columns 12, rows A-H and column 24, rows I-P for the maximum signal control.
Where RLU=relative luminescence units, sample=signal in sample well, and MIN and MAX are the respective minimum and maximum signal controls. • Four-parameter IC50 fit equation:
Y=Bottom+(Top−Bottom)/(1+(IC50/X)^Hill Slope)
Where top and bottom are normally allowed to float but may be fixed at 100 or 0 respectively in a 3-parameter fit. Y is the % inhibition and X is the compound concentration.
Molecular Biology and virus production. […] The baculovirus from the expression plasmid WRN-BV08 was generated from transfection and amplification following the manufacturer's instructions.
Sf9 cells grown in SF900II media were infected with 1:200 WRN-BV08 P2 virus and incubated for protein expression for 72 h at 27 °C. The WRN protein was purified using the following protocol. The cell pellets were thawed and resuspended in buffer A (50 mM Tris, pH 7.5, 500 mM NaCl, 1 mM TCEP, 10% Glycerol) supplemented with 0.5% CHAPS, 1 mM [COMPOUND LEFT OUT], 1 μg/ml Leupeptin, 1 μg/ml Pepstatin, and the Pierce Universal Nuclease and cocktail tablet. Cleared lysates were loaded onto a Ni Sepharose™ excel column and washed with buffer A and bound protein was eluted with buffer A supplemented with 300 mM imidazole. The eluted protein was dialyzed against buffer A and digested by His-tagged TEV (1:5 ratio) overnight at 4 °C. […] Untagged WRN protein was eluted from the column with buffer A supplemented with 20 mM imidazole, dialyzed overnight into buffer B (50 mM Tris, pH 7.5, 1 mM TCEP, 10% Glycerol) supplemented with 150 mM NaCl and loaded onto a Heparin column. Proteins were eluted with a step gradient of buffer B supplemented with 150 mM, 200 mM, 300 mM and 500 mM NaCl.

T1 sequence (Q14191 517-1235 L1074F): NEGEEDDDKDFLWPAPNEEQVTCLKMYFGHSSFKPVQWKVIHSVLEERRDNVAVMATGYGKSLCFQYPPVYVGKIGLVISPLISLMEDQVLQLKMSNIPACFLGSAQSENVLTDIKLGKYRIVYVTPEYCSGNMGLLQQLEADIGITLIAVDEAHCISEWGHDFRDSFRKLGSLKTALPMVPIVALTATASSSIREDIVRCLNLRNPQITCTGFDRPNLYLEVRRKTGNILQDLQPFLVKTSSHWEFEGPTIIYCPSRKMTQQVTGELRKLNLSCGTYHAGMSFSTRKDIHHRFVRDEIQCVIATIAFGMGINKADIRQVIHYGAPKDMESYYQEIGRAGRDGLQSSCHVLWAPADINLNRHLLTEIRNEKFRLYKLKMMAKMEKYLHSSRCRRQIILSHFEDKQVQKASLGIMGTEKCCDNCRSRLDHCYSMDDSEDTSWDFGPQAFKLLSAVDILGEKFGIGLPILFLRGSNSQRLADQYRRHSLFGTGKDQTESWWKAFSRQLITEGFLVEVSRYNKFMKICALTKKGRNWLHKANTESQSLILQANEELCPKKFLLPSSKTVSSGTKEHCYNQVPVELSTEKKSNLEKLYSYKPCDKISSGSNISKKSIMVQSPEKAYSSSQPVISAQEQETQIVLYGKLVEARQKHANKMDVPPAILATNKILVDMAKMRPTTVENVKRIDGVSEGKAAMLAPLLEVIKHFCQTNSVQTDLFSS

SMILES | IC50 [nM]
CCc1c(N2CCC3C2CCN3C(=O)c2cnn(C)c2)c(=O)n2nc(C3=CCOCC3)nc2n1CC(=O)Nc1ccc(C(F)(F)F)cc1Cl (stereo not drawn) [Compound I-68, N-[2-chloro-4-(trifluoromethyl)phenyl]-2-[2-(3,6-dihydro-2H-pyran-4-yl)-5-ethyl-6-[4-(1-methyl-1H-pyrazole-4-carbonyl)-octahydropyrrolo[3,2-b]pyrrol-1-yl]-7-oxo-4H,7H-[1,2,4]triazolo[1,5-a]pyrimidin-4-yl]acetamide] | 50 to 100
CCc1c(N2CCN(C(=O)c3nc(C)cs3)CC2)c(=O)n2nc(-c3ccnc(OC)c3)nc2n1CC(=O)Nc1ccc(C(F)(F)F)cc1Cl [Compound I-57, N-[2-chloro-4-(trifluoromethyl)phenyl]-2-[5-ethyl-2-(2-methoxypyridin-4-yl)-6-[4-(4-methyl-1,3-thiazole-2-carbonyl)piperazin-1-yl]-7-oxo-4H,7H-[1,2,4]triazolo[1,5-a]pyrimidin-4-yl]acetamide] | 100 to 500
CCc1c(N2CCN(C(=O)C(F)(F)F)CC2)c(=O)n2nc(-c3ccnc(OC)c3)nc2n1CC(=O)Nc1ccc(C(F)(F)F)cc1Cl [Compound I-47, N-[2-chloro-4-(trifluoromethyl)phenyl]-2-[5-ethyl-2-(2-methoxypyridin-4-yl)-7-oxo-6-[4-(2,2,2-trifluoroacetyl)piperazin-1-yl]-4H,7H-[1,2,4]triazolo[1,5-a]pyrimidin-4-yl]acetamide] | 50 to 100
CCc1c(N2CCN(C(=O)c3nn(C)cc3O)CC2)c(=O)n2nc(C3CC3)nc2n1CC(=O)Nc1ccc(C(F)(F)F)cc1Cl [Compound I-36, N-[2-chloro-4-(trifluoromethyl)phenyl]-2-{2-cyclopropyl-5-ethyl-6-[4-(4-hydroxy-1-methyl-1H-pyrazole-3-carbonyl)piperazin-1-yl]-7-oxo-4H,7H-[1,2,4]triazolo[1,5-a]pyrimidin-4-yl}acetamide] | 100 to 500
CCc1c(N2CCN(C(=O)c3ccnn3C)CC2)c(=O)n2nc(-c3ccnc(OC)c3)nc2n1CC(=O)Nc1ccc(C(F)(F)F)cc1Cl [Compound I-66, N-[2-chloro-4-(trifluoromethyl)phenyl]-2-[5-ethyl-2-(2-methoxypyridin-4-yl)-6-[4-(1-methyl-1H-pyrazole-5-carbonyl)piperazin-1-yl]-7-oxo-4H,7H-[1,2,4]triazolo[1,5-a]pyrimidin-4-yl]acetamide] | 5 to 50
CCc1c(N2CCN(C(=O)c3ccnc(C)c3O)CC2)c(=O)n2nc(C3=CCOCC3)nc2n1CC(=O)Nc1ccc(C(F)(F)F)cc1Cl [Compound I-5, N-[2-chloro-4-(trifluoromethyl)phenyl]-2-[2-(3,6-dihydro-2H-pyran-4-yl)-5-ethyl-6-[4-(3-hydroxy-2-methylpyridine-4-carbonyl)piperazin-1-yl]-7-oxo-4H,7H-[1,2,4]triazolo[1,5-a]pyrimidin-4-yl]acetamide] | 5 to 50
CCc1c(N2CCN(C(=O)c3ccn(C)n3)CC2)c(=O)n2nc(C3=CCOCC3)nc2n1CC(=O)Nc1ccc(C(F)(F)F)cc1Cl [Compound I-30, N-[2-chloro-4-(trifluoromethyl)phenyl]-2-[2-(3,6-dihydro-2H-pyran-4-yl)-5-ethyl-6-[4-(1-methyl-1H-pyrazole-3-carbonyl)piperazin-1-yl]-7-oxo-4H,7H-[1,2,4]triazolo[1,5-a]pyrimidin-4-yl]acetamide] | 5 to 50

Further lines, results first:

IC50 [nM] | SMILES
5 to 50 | CCc1c(N2CCN(C(=O)CC#N)CC2)c(=O)n2nc(C3=CCOCC3)nc2n1CC(=O)Nc1ccc(C(F)(F)F)cc1Cl [Compound I-25, N-[2-chloro-4-(trifluoromethyl)phenyl]-2-{6-[4-(2-cyanoacetyl)piperazin-1-yl]-2-(3,6-dihydro-2H-pyran-4-yl)-5-ethyl-7-oxo-4H,7H-[1,2,4]triazolo[1,5-a]pyrimidin-4-yl}acetamide]
< 5 | CCc1c(N2CCN(C(=O)c3ncc4c(c3O)OCC4)CC2)c(=O)n2nc(-c3ccnc(OC)c3)nc2n1CC(=O)Nc1ccc(C(F)(F)F)cc1Cl [Compound I-86, N-[2-chloro-4-(trifluoromethyl)phenyl]-2-[5-ethyl-6-(4-{7-hydroxy-2H,3H-furo[3,2-c]pyridine-6-carbonyl}piperazin-1-yl)-2-(2-methoxypyridin-4-yl)-7-oxo-4H,7H-[1,2,4]triazolo[1,5-a]pyrimidin-4-yl]acetamide]
5 to 50 | CCc1c(N2CCN(C(=O)c3cnn(C)c3)CC2)c(=O)n2nc(-c3cccnc3OC)nc2n1CC(=O)Nc1ccc(C(F)(F)F)cc1Cl [Compound I-54, N-[2-chloro-4-(trifluoromethyl)phenyl]-2-[5-ethyl-2-(2-methoxypyridin-3-yl)-6-[4-(1-methyl-1H-pyrazole-4-carbonyl)piperazin-1-yl]-7-oxo-4H,7H-[1,2,4]triazolo[1,5-a]pyrimidin-4-yl]acetamide]
5 to 50 | CCc1c(N2CCN(C(=O)c3cnn(C)c3O)CC2)c(=O)n2nc(C3=CCOCC3)nc2n1CC(=O)Nc1ccc(C(F)(F)F)cc1Cl [Compound I-26, N-[2-chloro-4-(trifluoromethyl)phenyl]-2-[2-(3,6-dihydro-2H-pyran-4-yl)-5-ethyl-6-[4-(5-hydroxy-1-methyl-1H-pyrazole-4-carbonyl)piperazin-1-yl]-7-oxo-4H,7H-[1,2,4]triazolo[1,5-a]pyrimidin-4-yl]acetamide]
5 to 50 | CCc1c(N2CCN(C(=O)c3cnc(C)cc3O)CC2)c(=O)n2nc(C3=CCOCC3)nc2n1CC(=O)Nc1ccc(C(F)(F)F)cc1Cl [Compound I-2, N-[2-chloro-4-(trifluoromethyl)phenyl]-2-[2-(3,6-dihydro-2H-pyran-4-yl)-5-ethyl-6-[4-(4-hydroxy-6-methylpyridine-3-carbonyl)piperazin-1-yl]-7-oxo-4H,7H-[1,2,4]triazolo[1,5-a]pyrimidin-4-yl]acetamide]
5 to 50 | CCc1c(N2CCN(C(=O)c3ncnc(C)c3O)CC2)c(=O)n2nc(-c3ccn(C4CC4)n3)nc2n1CC(=O)Nc1ccc(C(F)(F)F)cc1Cl [Compound I-33, N-[2-chloro-4-(trifluoromethyl)phenyl]-2-[2-(1-cyclopropyl-1H-pyrazol-3-yl)-5-ethyl-6-[4-(5-hydroxy-6-methylpyrimidine-4-carbonyl)piperazin-1-yl]-7-oxo-4H,7H-[1,2,4]triazolo[1,5-a]pyrimidin-4-yl]acetamide]
5 to 50 | CCc1c(N2CCN(C(=O)[C@H]3C[C@@H](O)C3)CC2)c(=O)n2nc(C3=CCOCC3)nc2n1CC(=O)Nc1ccc(C(F)(F)F)cc1Cl [Compound I-39, N-[2-chloro-4-(trifluoromethyl)phenyl]-2-[2-(3,6-dihydro-2H-pyran-4-yl)-5-ethyl-7-oxo-6-{4-[(1s,3s)-3-hydroxycyclobutanecarbonyl]piperazin-1-yl}-4H,7H-[1,2,4]triazolo[1,5-a]pyrimidin-4-yl]acetamide]
5 to 50 | CCc1c(N2CCN(C(=O)c3ncnc(C)c3O)CC2)c(=O)n2nc(-c3cc(C)nc(OC)c3)nc2n1CC(=O)Nc1ccc(C(F)(F)F)cc1Cl [Compound I-43, N-[2-chloro-4-(trifluoromethyl)phenyl]-2-{5-ethyl-6-[4-(5-hydroxy-6-methylpyrimidine-4-carbonyl)piperazin-1-yl]-2-(2-methoxy-6-methylpyridin-4-yl)-7-oxo-4H,7H-[1,2,4]triazolo[1,5-a]pyrimidin-4-yl}acetamide]
5 to 50 | CCc1c(N2CCN(C(=O)c3noc(C)n3)CC2)c(=O)n2nc(-c3ccnc(OC)c3)nc2n1CC(=O)Nc1ccc(C(F)(F)F)cc1Cl [Compound I-78, N-[2-chloro-4-(trifluoromethyl)phenyl]-2-[5-ethyl-2-(2-methoxypyridin-4-yl)-6-[4-(5-methyl-1,2,4-oxadiazole-3-carbonyl)piperazin-1-yl]-7-oxo-4H,7H-[1,2,4]triazolo[1,5-a]pyrimidin-4-yl]acetamide]
5 to 50 | CCc1c(N2CCN(C(=O)c3ccnc(OC)c3O)CC2)c(=O)n2nc(-c3ccnc(OC)c3)nc2n1CC(=O)Nc1ccc(C(F)(F)F)cc1Cl [Compound I-80, N-[2-chloro-4-(trifluoromethyl)phenyl]-2-{5-ethyl-6-[4-(3-hydroxy-2-methoxypyridine-4-carbonyl)piperazin-1-yl]-2-(2-methoxypyridin-4-yl)-7-oxo-4H,7H-[1,2,4]triazolo[1,5-a]pyrimidin-4-yl}acetamide]
5 to 50 | CCc1c(N2CCN(C(=O)c3c(O)cncc3F)CC2)c(=O)n2nc(C3=CCOCC3)nc2n1CC(=O)Nc1ccc(C(F)(F)F)cc1Cl [Compound I-9, N-[2-chloro-4-(trifluoromethyl)phenyl]-2-[2-(3,6-dihydro-2H-pyran-4-yl)-5-ethyl-6-[4-(3-fluoro-5-hydroxypyridine-4-carbonyl)piperazin-1-yl]-7-oxo-4H,7H-[1,2,4]triazolo[1,5-a]pyrimidin-4-yl]acetamide]

— patent US20260356840A1, “[1,2,4]TRIAZOLO[1,5-A]PYRIMIDINONE WRN INHIBITORS” (Nimbus Wadjet, Inc., priority 2023, published 2026)
